# In PMC6759476, “Prior Activation of 5-HT7 Receptors Modulates the Conditioned Place Preference With Methylphenidate” (Frontiers in Behavioral Neuroscience, 2019):
# Tests used:
# D2 = target: D2; parameters: method as in Lacivita et al., 2016; details: ref Lacivita et al., 2016; cited from earlier work
# Alfa-1 = target: Alfa-1; parameters: method as in Lacivita et al., 2016; details: ref Lacivita et al., 2016; cited from earlier work
# [1] = parameters: method as in Lacivita et al., 2016; Modica et al., 2018; details: in vivo bio-distribution; ref Lacivita et al., 2016; Modica et al., 2018; cited from earlier work
# 5-HT1A = target: 5-HT1A; parameters: method as in Lacivita et al., 2016; details: ref Lacivita et al., 2016; cited from earlier work
# 5-HT6 = target: 5-HT6; parameters: method as in Lacivita et al., 2016; details: ref Lacivita et al., 2016; cited from earlier work
# rats [2] = assay: Conditioned place preference with MPH and TP-22; format: in vivo, rat (Wistar-Han)
# Excerpt: The experimental apparatus used for the CPP test is a Black/White Box (BWB; Adriani et al., [2012]), i.e., a Plexiglas box with smooth walls and floor (70 × 30 × 35 cm) composed of two environments separated by a central gray wall placed at a distance of about 35 cm from end walls. The walls on the longer sides are gray whereas those on the short margins can be distinguished by black or white color. To make the two environments more recognizable, we added additional visual cues: three horizontal white stripes to the black wall and three vertical black stripes to the white wall. On the central gray wall there is a door with an easily removable panel (partition), allowing the experimental subjects to pass (or not) from one compartment chamber to the other, when required.
# On both longer sides of the box, there are two aluminum bars equipped with eight photocells connected by cables to a computer. The software in use is Cage controller 1.27 for Dark Light for Rat and Mouse® (PRS, Rome, Italy)^2, that allows to score for each subject:
# • Motor activity (beam interruptions per second) in either chamber • Time spent in each chamber (both forepaws and hindpaws in a same chamber) • Transitions (number of times a subject crosses the door between the two chambers)
# This test was carried out under dim light and required nine not consecutive days divided into four steps (Figures 2–4):
# • Day 1, initial preference test. The spontaneous place preference of experimental subjects was tested in drug-free conditions. They were initially placed in the black chamber (chosen as starting room) and central door was open during the whole test (15 min). The triplet of rats residing in each home cage was tested at the same time. • Days 2–7, drug conditioning. On odd days all 18 subjects were injected with saline solution only and, after injection, immediately placed in the black chamber. […]
# The dependent variable was calculated as final preference day minus initial preference day. […]
# mice = test system: mice; parameters: method as in Galici et al., 2008; Waters et al., 2012; details: ref Galici et al., 2008, Waters et al., 2012; cited from earlier work
# rats [3] = test system: rats; parameters: method as in Galici et al., 2008; Waters et al., 2012; details: ref Galici et al., 2008, Waters et al., 2012; cited from earlier work
smiles,measurement,setting,value
"N#Cc1ccc(CNC(=O)CCCCCN2CCN(c3ccccc3-c3ccccc3)CC2)cc1 [LP-211, N-(4-cyanophenylmethyl)-4–(2-biphenyl)-1-piperazinehexanamide]",Ki,D2,242 nM
same,Ki,Alfa-1,22.6 nM
same,brain Cmax,[1],540 ng/mL
same,Ki,5-HT1A,379 nM
same,Ki,5-HT6,1570 nM
"COC(=O)C(c1ccccc1)C1CCCCN1 (stereo not shown) [MPH, methylphenidate]",locomotor activity on drug conditioning days (white chamber),"rats [2]; VEH then MPH 5 mg/kg i.v., vs saline control, P < 0.01",significantly enhanced
same,"activity rate, post-conditioning preference test minus initial test","rats [2]; drug-free, VEH+MPH conditioned rats",negative during the entire session
same,"time spent in the white side, post-conditioning preference test","rats [2]; drug-free, VEH+MPH conditioned rats, first 05 min",slight preference for the white side
CC1CCN(CC[C@H]2CCCN2S(=O)(=O)c2cccc(O)c2)CC1 [SB-269970],amphetamine-induced hyperactivity,mice,significantly attenuated
same,amphetamine-induced hyperactivity,rats [3],significantly attenuated
